Test results published in US20220274979A1 (Bayer Pharma Aktiengesellschaft, priority 2018, published 2022).
Where two headings read alike, the source gives them in different places.

Tests used:
[1] = molecular target: T1, hSOS1 (hSOS1-mediated loading of hK-RasG12C-GDP) (Homo sapiens, UniProt Q07889); assay: Biochemical Assay 3: hK-RasG12C activation assay by hSOS1 (loading with fluorescent GTP analog, HTRF); details: no GTP
T1 construct: hSOS1 (amino acid 564-1049); made in house; host or cells: E. coli BL21 (DE3)
T1 sequence (Q07889 with tags, fused parts or gaps): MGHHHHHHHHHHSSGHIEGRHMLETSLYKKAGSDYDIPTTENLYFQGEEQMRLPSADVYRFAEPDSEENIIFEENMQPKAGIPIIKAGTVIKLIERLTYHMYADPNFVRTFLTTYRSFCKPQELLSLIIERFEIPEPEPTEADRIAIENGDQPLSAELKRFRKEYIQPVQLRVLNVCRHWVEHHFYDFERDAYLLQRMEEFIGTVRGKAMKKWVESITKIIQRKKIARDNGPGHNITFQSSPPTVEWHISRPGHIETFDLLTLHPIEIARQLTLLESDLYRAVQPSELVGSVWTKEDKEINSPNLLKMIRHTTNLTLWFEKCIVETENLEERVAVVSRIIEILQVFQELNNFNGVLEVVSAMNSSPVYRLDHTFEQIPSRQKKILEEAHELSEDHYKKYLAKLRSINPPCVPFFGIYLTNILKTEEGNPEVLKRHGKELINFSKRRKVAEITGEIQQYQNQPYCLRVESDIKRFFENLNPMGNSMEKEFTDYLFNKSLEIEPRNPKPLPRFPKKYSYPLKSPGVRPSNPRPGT
Source text: Biochemical Assay 3: hK-RasG12C Activation Assay by hSOS1
K-Ras is a small GTPase that can bind GDP and GTP. The guanine nucleotide exchange factor SOS1 catalyzes the activation of K-Ras by promoting the exchange of GDP to GTP. SOS1 binds to K-Ras-GDP thereby opening the GDP-binding pocket to facilitate GDP release. Rebinding of excess nucleotide leads to dissociation of the K-Ras-SOS1 intermediate complex leaving K-Ras loaded with the nucleotide.
This assay quantifies human SOS1-(hSOS1-)mediated loading of human K-Ras^G12C-GDP (hK-RasG12C-GDP) with a fluorescent GTP-analog. Detection of successful loading is achieved by measuring homogenous time-resolved fluorescence resonance energy transfer (HTRF) from antiGST-Terbium (FRET donor) bound to GST-hK-RasG12C (see below) to the loaded fluorescent GTP analog (FRET-acceptor).
The fluorescent GTP-analog EDA-GTP-Dy647P1 (2′/3′-O-(2-Aminoethyl-carbamoyl)-guanosine-5′-triphosphate labelled with Dy647P1 (Dyomics GmbH, Germany)) was synthesized by Jena Biosciences GmbH (Germany) and supplied as a 1 mM aqueous solution.
(§1) The assay buffer contained 10 mM HEPES pH 7.4 (Applichem), 150 mM NaCl (Sigma), 5 mM MgCl2 (Sigma), 1 mM DTT (Thermofisher), 0.05% BSA Fraction V, pH 7.0, (ICN Biomedicals), 0.0025% (v/v) Igepal (Sigma).
Concentrations of protein batches used were optimized to be within the linear range of the HTRF signal. A hRas working solution was prepared in assay buffer containing typically 100 nM GST-hK-RasG12C and 2 nM antiGST-Tb (Cisbio, France). A hSOS1 working solution was prepared in assay buffer containing typically 20 nM hSOS1 and 200 nM EDA-GTP-Dy647P1. An inhibitor control solution was prepared in assay buffer containing 200 nM EDA-GTP-Dy647P1 without hSOS1.
(§2) Fifty nl of a 100-fold concentrated solution of the test compound in DMSO were transferred into a black microtiter test plate (384 or 1536, Greiner Bio-One, Germany) For this, either a Hummingbird liquid handler (Digilab, Mass., USA) or an Echo acoustic system (Labcyte, Calif., USA) was used.
(§3) All steps of the assay were performed at 20° C. A volume of 2.5 μl of the hRas working solution was added to all wells of the test plate using a Multidrop dispenser (Thermo Labsystems). After 10 min. preincubation, 2.5 μl of the hSOS1 working solution were added to all wells except for those wells at the side of the test plate that were subsequently filled with 2.5 μl of the inhibitor control solution. After 30 mM incubation the fluorescence was measured with a Pherastar (BMG, Germany) using the HTRF module (excitation 337 nm, emission 1: 620 nm, emission 2:665 nm).
(§4) IC50 values were calculated by 4-Parameter fitting using a commercial software package (Genedata Screener, Switzerland).

[2] = molecular target: T2, hSOS1 (hSOS1-mediated nucleotide exchange of hK-RasG12C) (Homo sapiens, UniProt Q07889); assay: Biochemical Assay 2: hK-RasG12C activation assay by hSOS1 at high GTP concentration (HTRF nucleotide exchange); details: high GTP (50 μM GTP)
T2 construct: hSOS1 (amino acid 564-1049); made in house; host or cells: E. coli BL21 (DE3)
T2 sequence (Q07889 with tags, fused parts or gaps): T1 sequence (Q07889 with tags, fused parts or gaps)
Source text: Biochemical Assay 2: hK-RasG12C Activation Assay by hSOS1 at High GTP Concentration
This assay quantifies human SOS1-mediated nucleotide exchange of human K-Ras^G12C (hK-RasG12C) preloaded with a fluorescent […] and in presence of an excess of free GTP. Loaded hK-RasG12C generates a high HTRF-signal by energy transfer from antiGST-Terbium (FRET donor) bound to hK-Ras to the loaded fluorescent GDP analog (FRET-acceptor). hSOS1 activity exchanges the fluorescent GDP for non-fluorescent GTP and therefore leads to a reduction of the HTRF signal.
The fluorescent GDP-analog EDA-GDP-Dy647P1 (2′/3′-O-(2-Aminoethyl-carbamoyl)-guanosine-5′-diphosphate labelled with Dy647P1 (Dyomics GmbH, Germany)) was synthesized by Jena Biosciences GmbH (Germany) and supplied as a 1 mM aqueous solution.
Concentrations of protein batches used were optimized to be within the linear range of the HTRF signal.
Addition of 20 μl 1 M MgCl2 (Sigma) to final 40 mM and store on ice. Purification into buffer (10 mM HEPES pH 7.4 (Applichem), 150 mM NaCl (Sigma), 5 mM MgCl2 (Sigma)) by use of a PD-Minitrap desalting column (GE Healthcare). Concentration of 1 ml purified hK-Ras-GDP-Dy647 is approx. 4-5 μM.
as §1
A Ras working solution was prepared in assay buffer containing typically 80 nM loaded GST-hK-RasG12C-EDA-GDP-Dy647P1 and 2 nM antiGST-Tb (Cisbio, France).
Alternatively, the inhibitor control solution was prepared by supplementing the hSOS1 working solution with 20 μM of 6,7-dimethoxy-N-[(1R)-1-(1-naphthyl)ethyl]quinazolin-4-amine which was used to calibrate the assay.
as §2
as §3, with “Ras” for “hRas”, “2” for “10”, “20 min.” for “30 mM”, “1:620” for “1: 620”
as §4

[3] = molecular target: T3, hK-RasG12C - hSOS1 interaction (Homo sapiens, UniProt Q07889); assay: Biochemical Assay 1: hK-RasG12C interaction assay with hSOS1 (HTRF); format: binding
T3 construct: hSOS1 (amino acid 564-1049); made in house; host or cells: E. coli BL21 (DE3)
T3 sequence (Q07889 with tags, fused parts or gaps): T1 sequence (Q07889 with tags, fused parts or gaps)
Protocol: Biochemical Assay 1: hK-RasG12C Interaction Assay with hSOS1
This assay quantifies the equilibrium interaction of human SOS1 (hSOS1) with human K-Ras^G12C (hK-RasG12C). Detection of the interaction is achieved by measuring homogenous time-resolved fluorescence resonance energy transfer (HTRF) from antiGST-Europium (FRET donor) bound to GST-K-RasG12C to anti-6His-XL665 bound to His-tagged hSOS1 (FRET-acceptor).
The assay buffer contained 5 mM HEPES pH 7.4 (Applichem), 150 mM NaCl (Sigma), 10 mM EDTA (Promega), 1 mM DTT (Thermofisher), 0.05% BSA Fraction V, pH 7.0, (ICN Biomedicals), 0.0025% (v/v) Igepal (Sigma) and 100 mM KF (FLUKA).
Concentrations of protein batches used were optimized to be within the linear range of the HTRF signal. A Ras working solution was prepared in assay buffer containing typically 10 nM GST-hK-RasG12C and 2 nM antiGST-Eu(K) (Cisbio, France). A SOS1 working solution was prepared in assay buffer containing typically 20 nM His-hSOS1 and 10 nM anti-6His-XL665 (Cisbio, France). An inhibitor control solution was prepared in assay buffer containing 10 nM anti-6His-XL665 without hSOS1.
as §2
as §3, with “Ras” for “hRas”, “[…]” for “10 min.”, “SOS1” for “hSOS1”, “[…]” for “30”, “1:620” for “1: 620”
as §4

Cc1nc(NC(C)c2ccc(-c3ccccc3CN(C)C)s2)c2cc(N3CCNC(=O)C3)ncc2n1 (centres unmarked) [Example 50, 4-(4-{[1-(5-{2-[(dimethylamino)methyl]phenyl}thiophen-2-yl)ethyl]amino}-2-methylpyrido[3,4-d]pyrimidin-6-yl)piperazin-2-one]
IC50 [1]: 54.8 nM
IC50 [2]: 48.8 nM

CCCOc1cc2c(NC(C)c3ccc(-c4ccccc4CN(C)C)s3)nc(C)nc2cn1 (centres unmarked) [Example 65, N-[1-(5-{2-[(dimethylamino)methyl]phenyl}thiophen-2-yl)ethyl]-2-methyl-6-propoxypyrido[3,4-d]pyrimidin-4-amine]
IC50 [2]: 32.8 nM

Cc1nc(NC(C)c2ccc(-c3ccccc3CN(C)C)s2)c2cc(OCCN(C)C)ncc2n1 (centres unmarked) [Example 66, 6-[2-(dimethylamino)ethoxy]-N-[1-(5-{2-[(dimethylamino)methyl]phenyl}thiophen-2-yl)ethyl]-2-methylpyrido[3,4-d]pyrimidin-4-amine]
IC50 [2]: 22.7 nM
IC50 ([3]; values expressed as IC50): 30.4 nM

CC(=O)N(c1cccc(C(=O)NC2CN(c3cc4c(NC(C)c5ccc(-c6ccccc6CN(C)C)s5)nc(C)nc4cn3)C2)c1)[C@@H]1CCN(C(=O)OC(C)(C)C)C1 (stereo partly drawn) [Example 97, tert-butyl (3R)-3-[acetyl(3-{[1-(4-{[1-(5-{2-[(dimethylamino)methyl]phenyl}-2-thienyl)-ethyl]amino}-2-methylpyrido[3,4-d]pyrimidin-6-yl)azetidin-3-yl]carbamoyl}-phenyl)amino]pyrrolidine-1-carboxylate]
IC50 [1]: 554 nM
IC50 [2]: 298 nM
IC50 ([3]; values expressed as IC50): 293 nM

CC(=O)N(c1cccc(C(=O)NC2CN(c3cc4c(NC(C)c5ccc(-c6ccccc6CN(C)C)s5)nc(C)nc4cn3)C2)c1)C1CCN(C(=O)OC(C)(C)C)CC1 (centres unmarked) [Example 98, tert-butyl 4-[acetyl(3-{[1-(4-{[1-(5-{2-[(dimethylamino)methyl]phenyl}thiophen-2-yl)ethyl]amino}-2-methylpyrido[3,4-d]pyrimidin-6-yl)azetidin-3-yl]carbamoyl}-phenyl)amino]piperidine-1-carboxylate]
IC50 [1]: 620 nM
IC50 [2]: 428 nM
IC50 [3]: 271 nM

Cc1nc(NC(C)c2ccc(-c3ccccc3CN(C)C)s2)c2cc(N3CC(NCc4ccccc4)C3)ncc2n1 (centres unmarked) [Example 99, 6-[3-(benzylamino)azetidin-1-yl]-N-[1-(5-{2-[(dimethylamino)methyl]phenyl}thiophen-2-yl)ethyl]-2-methylpyrido[3,4-d]pyrimidin-4-amine]
IC50 [1]: 82.5 nM
IC50 [2]: 58.8 nM
IC50 ([3]; values expressed as IC50): 53.2 nM

Cc1nc(NC(C)c2ccc(-c3ccccc3CN(C)C)s2)c2cc(N3CC(NC(=O)N4CCS(=O)(=O)CC4)C3)ncc2n1 (centres unmarked) [Example 100, N-[1-(4-{[1-(5-{2-[(dimethylamino)methyl]phenyl}thiophen-2-yl)ethyl]amino}-2-methylpyrido[3,4-d]pyrimidin-6-yl)azetidin-3-yl]thiomorpholine-4-carboxamide 1,1-dioxide]
IC50 [1]: 156 nM
IC50 [2]: 103 nM
IC50 ([3]; values expressed as IC50): 85.8 nM
